Source: paper PMC7822874, “Chemoprotective antimalarials identified through quantitative high-throughput screening of Plasmodium blood and liver stage parasites” (Scientific Reports, 2021)
Read-outs that look alike come from different tables or passages of the source.

Tests used:
[1] = system: HepG2-A16-CD81EGFP cells; conditions: average of 2 wells; for HepG2 1uM growth rep1 / HepG2 1uM growth rep2: HepG2, 1 µM compound treatment (10 mM stocks); for HepG2 1uM growth rep1 / HepG2 3uM growth rep1: replicate 1, normalized; for HepG2 1uM growth rep2 / HepG2 3uM growth rep2: replicate 2, normalized; for HepG2 3uM growth rep1 / HepG2 3uM growth rep2: HepG2, 3 µM compound treatment (10 mM stocks)
[2] = system: Plasmodium falciparum Dd2 asexual blood stage parasites; assay: microbe, parasite or virus in culture; parameters: species or system Plasmodium falciparum Dd2 in human erythrocytes; single determination (one 11-point concentration-response curve); conditions: Plasmodium falciparum, DD2, Erythrocyte, 72 h; read-out: AC50
[3] = in vitro; conditions: human, n = 1
[4] = system: P. berghei-ANKA-GFP-LucCON liver stage parasites in HepG2-A16-CD81EGFP cells; assay: P. berghei liver stage Pb-Luc assay, Method 1 (UCSD, 1536-well); format: cell-based, Plasmodium berghei; conditions: for activity at 1 µM / activity at 3 µM: 48 h; for Max Resp (signal direction of the dose response) / AC50 / Log AC50 (M): Method 1; for Max Resp (signal direction of the dose response): Decrease = decreasing P. berghei viability with dose, Increase = increasing signal, Inactive = no dose response
[5] = in vitro; conditions: human
[6] = Plasmodium berghei, P. berghei liver stage, 1 µM compound treatment (10 mM stocks), replicate 1, normalized, average of 2 wells on a 1536 well plate, read-out: PbLuc 1uM growth rep1
[7] = Plasmodium berghei, P. berghei liver stage, 1 µM compound treatment (10 mM stocks), replicate 2, normalized, average of 2 wells on a 1536 well plate, read-out: PbLuc 1uM growth rep2
[8] = Plasmodium berghei, P. berghei liver stage, 3 µM compound treatment (10 mM stocks), replicate 1, normalized, average of 2 wells on a 1536 well plate, read-out: PbLuc 3uM growth rep1
[9] = Plasmodium berghei, P. berghei liver stage, 3 µM compound treatment (10 mM stocks), replicate 2, normalized, average of 2 wells on a 1536 well plate, read-out: PbLuc 3uM growth rep2
[10] = HepG2-A16-CD81EGFP cells, uninfected
[11] = Plasmodium berghei, Hill fit, 50% of maximum activity response, read-out: AC50
[12] = Plasmodium berghei, log10 of molar AC50 from Hill fit, read-out: Log AC50 (converted)
[13] = Hill fit, 50% of maximum activity response, read-out: AC50
[14] = log10 of molar AC50 from Hill fit

| SMILES | AC50 [2] | CC50 at 48 h ([3]; HepG2 cells) | viability at 66 h [5, 10] | Max Resp (signal direction of the dose response) [4] | AC50 [4, 11] | AC50 [4, 12] | AC50 [4, 13] | Log AC50 (M) [4, 14] | further results |
| --- | --- | --- | --- | --- | --- | --- | --- | --- | --- |
| O=C(CCl)Nc1cccc(-c2cnc3ccccc3n2)c1 [MLS000541295-01] | 6680 nM | 13700 nM |  |  |  |  |  |  | HepG2 1uM growth rep1 [1]: 90%; HepG2 1uM growth rep2 [1]: 88%; HepG2 3uM growth rep1 [1]: 89%; HepG2 3uM growth rep2 [1]: 88%; activity at 1 µM [4, 6]: 128%; activity at 1 µM [4, 7]: 119%; activity at 3 µM [4, 8]: 151%; activity at 3 µM [4, 9]: 185% |
| O=C1c2ccccc2C(=O)c2[nH]c(=O)[nH]c21 [MLS001173438-01] | 5960 nM | 10900 nM | 95.7% | Decrease | 1580 nM | 1580 nM |  |  |  |
| O=C1Nc2ccccc2C1=NN=C(S)N1CCOCC1 [MLS000778251-01] | 2110 nM | 15300 nM | 86.1% | Decrease | 251 nM | 251 nM | 316 nM | -6.500 M |  |
| O=C(N/N=C(/c1ccccc1)c1cccnc1)c1cccc(F)c1 [MLS001224623-01] | 4220 nM | 12200 nM |  |  |  |  |  |  | HepG2 1uM growth rep1 [1]: 68%; HepG2 1uM growth rep2 [1]: 59%; HepG2 3uM growth rep1 [1]: 30%; HepG2 3uM growth rep2 [1]: 34%; activity at 1 µM [4, 6]: 10%; activity at 1 µM [4, 7]: 9%; activity at 3 µM [4, 8]: 6.61%; activity at 3 µM [4, 9]: 8% |
| Cc1ccc(Cl)cc1NC(=O)c1cc2ccccc2cc1O [MLS000738149-01] | 1500 nM |  |  |  |  |  |  |  | viability at 48 h, 1 µM [5]: 104%; viability at 48 h, 3 µM [5]: 69%; CC50 at 48 h ([3]; hepg2): 21700 nM; activity at 1 µM ([4]; Plasmodium berghei, 1 uM (compounds provided at 10 mM), average of 2 wells on a 1536 well plate, column 11, read-out: Pb-Luc (P. berghei liver stage), % of control, lower concentration, first repeat): 92%; activity at 1 µM ([4]; Plasmodium berghei, 1 uM (compounds provided at 10 mM), average of 2 wells on a 1536 well plate, column 12, read-out: Pb-Luc (P. berghei liver stage), % of control, lower concentration, second repeat): 94%; activity at 3 µM ([4]; Plasmodium berghei, 3 uM (compounds provided at 10 mM), average of 2 wells on a 1536 well plate, column 8, read-out: Pb-Luc (P. berghei liver stage), % of control, higher concentration, first repeat): 38%; activity at 3 µM ([4]; Plasmodium berghei, 3 uM (compounds provided at 10 mM), average of 2 wells on a 1536 well plate, column 9, read-out: Pb-Luc (P. berghei liver stage), % of control, higher concentration, second repeat): 81% |
| COc1ccc(C2C=C(c3ccc(Cl)cc3)Nc3nc(-c4ccc(Cl)cc4)nn32)cc1 (centres unmarked) [NCGC00100531-01] | 237 nM |  |  | Inactive |  |  |  |  | HepG2 viability signal, 1 uM, repeat 1 ([1]; nominal 1 uM (10 mM stock), […] for 15 mM, 1.2 uM for 12 mM, 2 uM for 20 mM stock, repeat 1): 97.18%; HepG2 viability signal, 1 uM, repeat 2 ([1]; nominal 1 uM (10 mM stock), […] for 15 mM, 1.2 uM for 12 mM, 2 uM for 20 mM stock, repeat 2): 96.07%; HepG2 viability signal, 3 uM, repeat 2 ([1]; nominal 3 uM (10 mM stock), 4.5 uM for 15 mM, 3.6 uM for 12 mM, 6 uM for 20 mM stock, repeat 2): 80.71%; CC50 at 48 h ([3]; hepg2): 15300 nM; activity at 1 µM ([4]; Plasmodium berghei, nominal 1 uM (10 mM stock), […] for 15 mM, 1.2 uM for 12 mM, 2 uM for 20 mM stock, average of 2 wells, 1536-well plate, repeat 1, read-out: Pb-Luc signal, 1 uM, repeat 1): 88.1%; activity at 1 µM ([4]; Plasmodium berghei, nominal 1 uM (10 mM stock), […] for 15 mM, 1.2 uM for 12 mM, 2 uM for 20 mM stock, average of 2 wells, 1536-well plate, repeat 2, read-out: Pb-Luc signal, 1 uM, repeat 2): 81%; activity at 1 µM ([4]; Plasmodium berghei, nominal 1 uM (10 mM stock), […] for 15 mM, 1.2 uM for 12 mM, 2 uM for 20 mM stock, average of 2 wells, 1536-well plate, repeat 3, read-out: Pb-Luc signal, 1 uM, repeat 3): 70.8%; activity at 3 µM ([4]; Plasmodium berghei, nominal 3 uM (10 mM stock), 4.5 uM for 15 mM, 3.6 uM for 12 mM, 6 uM for 20 mM stock, average of 2 wells, 1536-well plate, repeat 1, read-out: Pb-Luc signal, 3 uM, repeat 1): 5.3%; activity at 3 µM ([4]; Plasmodium berghei, nominal 3 uM (10 mM stock), 4.5 uM for 15 mM, 3.6 uM for 12 mM, 6 uM for 20 mM stock, average of 2 wells, 1536-well plate, repeat 2, read-out: Pb-Luc signal, 3 uM, repeat 2): 3.16%; activity at 3 µM ([4]; Plasmodium berghei, nominal 3 uM (10 mM stock), 4.5 uM for 15 mM, 3.6 uM for 12 mM, 6 uM for 20 mM stock, average of 2 wells, 1536-well plate, repeat 3, read-out: Pb-Luc signal, 3 uM, repeat 3): 51.4% |
| CC(=O)N(C)C1=C(N2CCOCC2)C(=O)c2ccccc2C1=O [MLS000570886-01] | 841 nM | 10900 nM | 92.5% | Decrease | 1260 nM | 1260 nM | 1580 nM | -5.800 M |  |
| O=C(Nc1ncccc1O)c1ccc(NS(=O)(=O)c2ccc3[nH]c(=O)[nH]c3c2)cc1 [MLS001138628-01] | 422 nM | 21700 nM |  |  |  |  |  |  | HepG2 1uM growth rep1 [1]: 110%; HepG2 1uM growth rep2 [1]: 100%; HepG2 3uM growth rep1 [1]: 89%; HepG2 3uM growth rep2 [1]: 93%; activity at 1 µM [4, 6]: 61%; activity at 1 µM [4, 7]: 57%; activity at 3 µM [4, 8]: 21%; activity at 3 µM [4, 9]: 25% |
| c1ccc(CCNc2ccnc3cc4ccccc4cc23)cc1 [MLS000717866-01] | 1680 nM | 10900 nM | 93.8% | Decrease | 398 nM | 398 nM | 501 nM | -6.300 M |  |
| O=C1c2cc(F)ccc2-n2c1nc1ccccc1c2=O [MLS001216278-01] | 119 nM | 12200 nM | 95.7% | Decrease | 3.55 nM | 3.55 nM | 4 nM | -8.400 M |  |
| N=c1ccn(Cc2ccc(Cl)cc2Cl)cc1 [MLS000554049-01] | 8410 nM | 19300 nM |  | Inactive |  |  |  |  | viability at 48 h [5, 10]: 89.2%; viability at 48 h, 1 µM [5, 10]: 89.2% |
| CCOC(=O)c1cnc(-n2nc(C)cc2C)nc1NC1CCCC1 [MLS000333072-01] | 8410 nM | 17200 nM | 107% | Inactive |  |  |  |  |  |
| O=C(Nc1ccc([N+](=O)[O-])cc1)Nc1nc(-c2ccc(Cl)s2)cs1 [MLS000722351-01] | 2990 nM | 13700 nM | 90% | Decrease | 178 nM | 178 nM | 224 nM | -6.650 M |  |
| N=c1ccn(Cc2ccc(Cl)c(Cl)c2)cc1 [MLS000080112-01] | 6680 nM | 30600 nM | 99.6% | Decrease | 1410 nM | 1410 nM | 1580 nM | -5.800 M |  |
